# Reference: PubChem BioAssay (NCI)
# Where “and” joins values, the source holds several entries; their conditions need not be identical. Identical values can stand only once.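 Exposure lasted 48 hours, with cells grown in 96-well plates and compounds tested at five concentrations. GI50 = concentration required for 50% inhibition of growth. TGI marks complete inhibition of growth.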
# Columns and labels:
# Test in all cases: NCI-60 cell line screen, 48 h
# CAKI-1 renal = system: CAKI-1 renal
# HCT-116 colon = system: HCT-116 colon
# HL-60(TB) leukemia = system: HL-60(TB) leukemia
# HOP-62 NSCLC = system: HOP-62 NSCLC
# IGROV1 ovarian = system: IGROV1 ovarian
# MALME-3M melanoma = system: MALME-3M melanoma
# NCI-H460 lung = system: NCI-H460 lung
# SW-620 colon = system: SW-620 colon
# OVCAR-3 ovarian = system: OVCAR-3 ovarian
# SF-268 CNS = system: SF-268 CNS
Compound,GI50 (CAKI-1 renal) [µM],TGI (CAKI-1 renal) [µM],GI50 (HCT-116 colon) [µM],TGI (HCT-116 colon) [µM],GI50 (HL-60(TB) leukemia) [µM],TGI (HL-60(TB) leukemia) [µM],GI50 (HOP-62 NSCLC),TGI (HOP-62 NSCLC) [µM],GI50 (IGROV1 ovarian) [µM],TGI (IGROV1 ovarian) [µM],GI50 (MALME-3M melanoma) [µM],TGI (MALME-3M melanoma) [µM],GI50 (NCI-H460 lung),TGI (NCI-H460 lung) [µM],GI50 (SW-620 colon) [µM],TGI (SW-620 colon),TGI (OVCAR-3 ovarian) [µM],TGI (SF-268 CNS) [µM],GI50 (OVCAR-3 ovarian) [µM],GI50 (SF-268 CNS) [µM]
Cn1ccc2c(c1=O)C(=O)c1nccc3c1c-2nc1ccccc13,1.44,2.85,1.35,2.87,2.21,5.03,1.45 µM,2.81,1.52,3.87,2.2,4.09,1.36 µM,3.09,1.28,3.17 µM,–,–,–,–
Fc1cccc2cc3ccc4cccc5ccc(c12)c3c45,–,> 100,–,> 100,–,> 100,–,> 100,–,> 100,–,> 100,–,–,–,> 100 µM,> 100,> 100,–,–
COC(C(=O)C(O)C(C)O)C1Cc2cc3cc(OC4CC(OC(C)=O)C(OC5CC(O)C(OC)C(C)O5)C(C)O4)cc(O)c3c(O)c2C(=O)C1OC1CC(OC2CC(OC3CC(C)(O)C(OC(=O)C(C)C)C(C)O3)C(O)C(C)O2)C(O)C(C)O1 (configuration not stated),–,–,–,–,–,–,0.0795 µM and 0.0102 µM and 0.00856 µM,–,–,–,–,–,0.0261 µM and 0.0113 µM and 0.00305 µM,–,–,3.98 µM and 2.22 µM,–,–,–,–
N#Cc1c(N)nc(N2CCOCC2)c(C#N)c1-c1ccc(Cl)cc1,26,97.1,65.1,> 100,–,–,> 100 µM,> 100,14,46.4,–,–,33.2 µM,> 100,> 100,> 100 µM,> 100,> 100,27.8,61.7
CCN1CCN(CC(=O)Nc2nc3ccc(NCc4ccc(Cl)cc4)cc3s2)CC1,2.1,5.19,3.21,11.7,1.95,3.87,–,–,3.37,14.9,1.67,3.2,2.18 µM,4.69,2.1,4.78 µM,16.8,6.29,3.16,2.43
